Like-named read-outs stand apart in the source and are kept apart here. Blank lines part the entries; values can stand above or below the molecule they belong to.
Experiments:
[1] = test system: NBM CD34+38- cells; assay: Viability of normal bone marrow CD34+38- cells; format: cell-based, human; details: 50 nM for 1 h, then drug-free medium 24 h
[2] = test system: CML CD34+ cells; assay: LTC-IC assay, CML CD34+ cells; format: cell-based, human; details: pulsed 1 h with 50 nM
[3] = test system: LAMA84S cells; assay: Proliferation of LAMA84S cells with or without LMP7 siRNA; format: cell-based; details: Homo sapiens, 24 h, read-out: IC50, proliferation, control LAMA84S, continuous exposure for 24 h
[4] = test system: CML CD34+38- cells; assay: Viability of CML CD34+38- cells; format: cell-based, human; details: 50 nM for 1 h, then drug-free medium 24 h
[5] = test system: STAT5 or PI3K signaling pathways; assay: Western blot of STAT5 and PI3K signaling after carfilzomib; format: cell-based; details: carfilzomib at IC50 doses, 1 h pulse, fresh medium 24 h
[6] = test system: CML cell lines; assay: Cell viability of CML cell lines; format: cell-based; details: read-out: IC50, viability
[7] = test system: KCL22S cells; assay: Proliferation of KCL22S cells with or without LMP7 siRNA; format: cell-based; details: Homo sapiens, 24 h, read-out: IC50, proliferation, control KCL22S, continuous exposure for 24 h
[8] = test system: normal CD34+ cells (NBM); assay: LTC-IC assay, normal CD34+ cells; format: cell-based, human; details: pulsed 1 h with 50 nM
[9] = test system: ABI 1/2; assay: Western blot of ABI 1/2 levels after carfilzomib; format: cell-based; details: carfilzomib at IC50 levels; cell lines and primary CD34+38- enriched cells
[10] = test system: K562 cells; assay: Proliferation of K562 cells with or without IFN-γ; format: cell-based; details: Homo sapiens
[11] = test system: caspase-3 activity in CML cell lines and primary samples; assay: Caspase-3 activity; format: cell-based; details: pulse treatment 1 h at IC50 doses
[12] = test system: A549 lung carcinoma cell line; assay: Proliferation of A549 cells with or without IFN-γ; format: cell-based; details: Homo sapiens
[13] = test system: LMP7 expression in A549 cells; assay: Induction of LMP7 expression by IFN-γ in A549 cells; format: cell-based; details: 100 U/ml IFN-γ for 72 h
[14] = test system: LMP7 expression in K562 cells; assay: Induction of LMP7 expression by IFN-γ in K562 cells; format: cell-based; details: 100 U/ml IFN-γ for 72 h

IC50 ([10]; K562, 24 h, read-out: IC50, proliferation): 608 nM | IC50 ([10]; K562, read-out: IC50, proliferation): 179 nM | IC50 ([12]; A549, 24 h, read-out: IC50, proliferation): 92 nM | IC50 ([12]; A549, read-out: IC50, proliferation): 10 nM
Molecule: CC(C)C[C@H](NC(=O)[C@H](CCc1ccccc1)NC(=O)CN1CCOCC1)C(=O)N[C@@H](Cc1ccccc1)C(=O)N[C@@H](CC(C)C)C(=O)[C@@]1(C)CO1 [carfilzomib]
viability reduced by [1]: 19±2% | colony formation reduced by [2]: 58±11% | IC50 [3]: 7 nM | viability reduced by [4]: 39±1% | effect on STAT5 or PI3K signaling pathways [5]: no effect | IC50 [6]: 20 to 79 nM | IC50 [7]: 5 nM | colony formation reduced by [8]: 44±7% | increased expression of ABI 1/2 [9]: 2.2–6.8 fold | caspase-3 activity [11]: increase in caspase-3 activity

B1: IFN-γ: interferon-γ, used at 100 U/ml for 72 h to induce immunoproteasome expression (protein, UniProt P01579 24-161, looked up)
Interferon gamma: QDPYVKEAENLKKYFNAGHSDVADNGTLFLGILKNWKEESDRKIMQSQIVSFYFKLFKNFKDDQSIQKSVETIKEDMNVKFFNSNKKKRDDFEKLTNYSVTDLNVQRKAIHELIQVMAELSPAAKTGKRKRSQMLFRG
increase in the expression of LMP7 [13]: 10 fold | increase in the expression of LMP7 [14]: fourfold
